Results taken from patent US10473647B1, “Peptides for use in treatment and diagnosis of type 1 diabetes” (ImmusanT, Inc., priority 2014, dated 2019).

Legend:
Assay type in all cases: cell-based, human
[1] = system: whole blood from subjects with T1D and Celiac disease; test: Whole blood cytokine release assay, IL-2 (MAGPIX), Example 1; details: individual 17mer 20 μg/mL, blood 6 days after commencing oral gluten challenge; for subjects with elevated whole blood IL-2 release: four subjects
[2] = system: whole blood from subjects with T1D and Celiac disease; test: Whole blood cytokine release assay, IFN-γ (MAGPIX), Example 1; details: individual 17mer 20 μg/mL, blood 6 days after commencing oral gluten challenge; for subjects with elevated whole blood IFN-γ release: four subjects
[3] = system: whole blood from subjects with T1D and Celiac disease; test: Whole blood cytokine release assay, IP-10 (MAGPIX), Example 1; details: individual 17mer 20 μg/mL, blood 6 days after commencing oral gluten challenge; for subjects with elevated whole blood IP-10 release (2-fold greater than medium alone): four subjects

Substance	IL-2 fold-change ([1]; Subject 1)	IL-2 fold-change (preproinsulin peptides) ([1]; Subject 1) [fold]	IL-2 fold-change ([1]; Subject 2)	IL-2 fold-change (preproinsulin peptides) ([1]; Subject 2) [fold]	IL-2 fold-change ([1]; Subject 6)	IL-2 fold-change (preproinsulin peptides) ([1]; Subject 6) [fold]	IL-2 fold-change ([1]; Subject 7)	IL-2 fold-change (preproinsulin peptides) ([1]; Subject 7) [fold]	IFN-g fold-change ([2]; Subject 1)	IFN-g fold-change (preproinsulin peptides) ([2]; Subject 1) [fold]	IFN-g fold-change ([2]; Subject 2)	IFN-g fold-change (preproinsulin peptides) ([2]; Subject 2) [fold]	IFN-g fold-change ([2]; Subject 6)	IFN-g fold-change (preproinsulin peptides) ([2]; Subject 6) [fold]	IFN-g fold-change ([2]; Subject 7)	IFN-g fold-change (preproinsulin peptides) ([2]; Subject 7) [fold]	IP-10 fold-change ([3]; Subject 1)	IP-10 fold-change (preproinsulin peptides) ([3]; Subject 1) [fold]	IP-10 fold-change ([3]; Subject 2)	IP-10 fold-change (preproinsulin peptides) ([3]; Subject 2) [fold]	other results
EDLQVGEVELGGGPGAG [SEQ ID NO: 50]	1.00	1.00	1.00	1.00	1.00	1.00	7.35	7.35	0.93	0.93	1.01	1.01	0.71	0.71	2.06	2.06	1.14	1.14	0.96	0.96	IP-10 fold-change ([3]; Subject 6): 0.87; IP-10 fold-change (preproinsulin peptides) ([3]; Subject 6): 0.87 fold; IP-10 fold-change ([3]; Subject 7): 1.61; IP-10 fold-change (preproinsulin peptides) ([3]; Subject 7): 1.61 fold
EAEVGQVELGGGPGAGS [SEQ ID NO: 56]	1.00	1.00	1.00	1.00	1.00	1.00	4.83	4.83	1.07	1.07	0.82	0.82	0.97	0.97	1.55	1.55	0.96	0.96	1.05	1.05	IP-10 fold-change ([3]; Subject 6): 0.91; IP-10 fold-change (preproinsulin peptides) ([3]; Subject 6): 0.91 fold; IP-10 fold-change ([3]; Subject 7): 1.43; IP-10 fold-change (preproinsulin peptides) ([3]; Subject 7): 1.43 fold
61 (FDRSTKVIDFHYPNELL) [compound 61]	–	–	–	–	–	–	–	–	–	–	–	–	–	–	–	–	–	–	–	–	IL-2 fold-change (GAD65 peptides) ([1]; Subject 1): 1.00 fold; IL-2 fold-change (GAD65 peptides) ([1]; Subject 2): 1.00 fold; IL-2 fold-change (GAD65 peptides) ([1]; Subject 6): 1.00 fold; IL-2 fold-change (GAD65 peptides) ([1]; Subject 7): 11.19 fold; IFN-g fold-change (GAD65 peptides) ([2]; Subject 1): 0.36 fold; IFN-g fold-change (GAD65 peptides) ([2]; Subject 2): 0.67 fold; IFN-g fold-change (GAD65 peptides) ([2]; Subject 6): 0.84 fold; IFN-g fold-change (GAD65 peptides) ([2]; Subject 7): 2.47 fold; IP-10 fold-change (GAD65 peptides) ([3]; Subject 1): 1.38 fold; IP-10 fold-change (GAD65 peptides) ([3]; Subject 2): 1.14 fold; IP-10 fold-change (GAD65 peptides) ([3]; Subject 6): 1.15 fold; IP-10 fold-change (GAD65 peptides) ([3]; Subject 7): 2.11 fold
PKAARPPVTPVLLEKKS [SEQ ID NO: 13]	–	–	–	–	–	–	–	–	–	–	–	–	–	–	–	–	–	–	–	–	subjects with elevated whole blood IL-2 release [1]: not IL-2; subjects with elevated whole blood IFN-γ release [2]: not IL-2 or IFN-γ release; subjects with elevated whole blood IP-10 release (2-fold greater than medium alone) [3]: all four subjects
NVGADIKKTMEGPVEGR [SEQ ID NO: 69]	–	–	–	–	–	–	–	–	–	–	–	–	–	–	–	–	–	–	–	–	subjects with elevated whole blood IL-2 release [1]: Only Subject 7 responded; subjects with elevated whole blood IFN-γ release [2]: Only Subject 7 responded; subjects with elevated whole blood IP-10 release (2-fold greater than medium alone) [3]: Only Subject 7 responded
PLLALLALWGPDPAAAF [SEQ ID NO: 45]	1.00	1.00	1.00	1.00	1.64	1.64	3.77	3.77	0.78	0.78	1.53	1.53	1.11	1.11	1.55	1.55	3.27	3.27	6.60	6.60	IP-10 fold-change ([3]; Subject 6): 31.61; IP-10 fold-change (preproinsulin peptides) ([3]; Subject 6): 31.61 fold; IP-10 fold-change ([3]; Subject 7): 2.73; IP-10 fold-change (preproinsulin peptides) ([3]; Subject 7): 2.73 fold; subjects with elevated whole blood IP-10 release (2-fold greater than medium alone) [3]: all four subjects
